# Reference: patent US20090137549A1, “Novel compounds useful for the treatment of degenerative & inflamatory diseases” (priority 2006, published 2009)
# Target: PDE1A (Homo sapiens, UniProt P54750)
# Assay: PDE1A dose response, Cyclic Nucleotide Phosphodiesterase Assay Kit from Biomol (colorimetric)
# Type: biochemical
# Conditions: purified PDE1A enzyme, 100 μM cAMP
# Source text: For the dose response and further screening, we used the Cyclic Nucleotide
# Phosphodiesterase Assay Kit from Biomol, a colorimetric, non-radioactive assay. The basis for the assay is the cleavage of cAMP by PDE1A. The 5′AMP is further cleaved into the nucleoside and phosphate by the enzyme 5′-nucleotidase (catnr KI-307). The phosphate released due to enzymatic cleavage is quantified using BIOMOL GREEN™ reagent (catnr AK-111) in a modified Malachite Green assay^1,2. A PDE1A inhibitor will result in a decrease of the signal.
# For the enzymatic reaction a mix of 25 μL with purified PDE1A enzyme, 100 μM cAMP, 5′Nucleotidase and the compound is made in a clear 384-plate. The reaction buffer is Tris 20 mM pH 7.4, 4 μg/mL calmodulin, 3 mM MgCl2, 1.5 mM CaCl2, 0.2 mg/mL BSA and 0.001% Brij-35. After an incubation of 45 minutes at 37° C., the reaction is stopped by the addition of 50 μL BIOMOL GREEN™ reagent. After 30 minutes incubation at room temperature, the readout is performed on the Envision (absorption at 615 nm).
# All compounds are tested in duplicate starting from […] followed by a 1/3 serial dilution, 8 points (20 μM-6.67 μM-2.22 μM-740 nM-247 nM-82 nM-27 nM-9 nM) in a final concentration of 1% DMSO. As the positive dose response control compound Vardenafil is used. For the calculation of z′ and PIN values 10 μM Vardenafil is used as positive control (100% inhibition) and 1% DMSO as negative control (0% inhibition).
# The following compounds have been or can be prepared according to the synthetic methods described above. For the purpose of Table 7 below, PDE1A activity of each compound, which can be determined using the assay methods described herein, is expressed as follows: […]
row,IC50,SMILES
1,1 to 100 nM,"Cc1nn(C(C)(C)C)c2nc(C3CN(C(=O)NC4CCCCC4)C3)[nH]c(=O)c12 [Example 15, 3-(1-tert-butyl-3-methyl-4-oxo-4,5-dihydro-1H-pyrazolo[3,4-d]pyrimidin-6-yl)-N-cyclohexylazetidine-1-carboxamide]"
2,1 to 100 nM,"CC(C)(C)n1ncc2c(=O)[nH]c(C3CN(C(=O)Nc4ccc(F)cc4)C3)nc21 [Example 16, 3-(1-tert-butyl-4-oxo-4,5-dihydro-1H-pyrazolo[3,4-d]pyrimidin-6-yl)-N-(4-fluorophenyl)azetidine-1-carboxamide]"
3,1 to 100 nM,"Cc1nn(C(C)(C)C)c2nc(C3CN(C(=O)NCc4ccc(F)cc4)C3)[nH]c(=O)c12 [Example 17, 3-(1-tert-butyl-3-methyl-4-oxo-4,5-dihydro-1H-pyrazolo[3,4-d]pyrimidin-6-yl)-N-(4-fluorobenzyl)azetidine-1-carboxamide]"
4,1 to 100 nM,"CC(C)c1ccc(NC(=O)N2CC(c3nc4c(cnn4C4CCCCC4)c(=O)[nH]3)C2)cc1 [Example 18, 3-(1-cyclohexyl-4-oxo-4,5-dihydro-1H-pyrazolo[3,4-d]pyrimidin-6-yl)-N-(4-isopropylphenyl)azetidine-1-carboxamide]"
5,1 to 100 nM,"O=C(Nc1ccc(F)cc1)N1CC(c2nc3c(cnn3C3CCCCC3)c(=O)[nH]2)C1 [Example 19, 3-(1-cyclohexyl-4-oxo-4,5-dihydro-1H-pyrazolo[3,4-d]pyrimidin-6-yl)-N-(4-fluorophenyl)azetidine-1-carboxamide]"
6,1 to 100 nM,"O=C(Nc1ccc(F)c(F)c1)N1CC(c2nc3c(cnn3C3CCCCC3)c(=O)[nH]2)C1 [Example 20, 3-(1-cyclohexyl-4-oxo-4,5-dihydro-1H-pyrazolo[3,4-d]pyrimidin-6-yl)-N-(3,4-difluorophenyl)azetidine-1-carboxamide]"
7,1 to 100 nM,"Cc1nn(C2CCCCC2)c2nc(C3CN(C(=O)Nc4ccc(F)cc4)C3)[nH]c(=O)c12 [Example 21, 3-(1-cyclohexyl-3-methyl-4-oxo-4,5-dihydro-1H-pyrazolo[3,4-d]pyrimidin-6-yl)-N-(4-fluorophenyl)azetidine-1-carboxamide]"
8,1 to 100 nM,"Cc1nn(C(C)(C)C)c2nc(C3CN(C(=O)NCc4ccccc4)C3)[nH]c(=O)c12 [Example 22, N-benzyl-3-(1-tert-butyl-3-methyl-4-oxo-4,5-dihydro-1H-pyrazolo[3,4-d]pyrimidin-6-yl)azetidine-1-carboxamide]"
9,1 to 100 nM,"O=C(NC1CCCCC1)N1CC(c2nc3c(cnn3C3CCCCC3)c(=O)[nH]2)C1 [Example 23, N-cyclohexyl-3-(1-cyclohexyl-4-oxo-4,5-dihydro-1H-pyrazolo[3,4-d]pyrimidin-6-yl)azetidine-1-carboxamide]"
10,1 to 100 nM,"Cc1nn(C2CCCCC2)c2nc(C3CN(C(=O)NCc4ccccc4)C3)[nH]c(=O)c12 [Example 24, N-benzyl-3-(1-cyclohexyl-3-methyl-4-oxo-4,5-dihydro-1H-pyrazolo[3,4-d]pyrimidin-6-yl)azetidine-1-carboxamide]"
11,1 to 100 nM,"O=C(Nc1ccc(OC(F)(F)F)cc1)N1CC(c2nc3c(cnn3C3CCCCC3)c(=O)[nH]2)C1 [Example 25, 3-(1-cyclohexyl-4-oxo-4,5-dihydro-1H-pyrazolo[3,4-d]pyrimidin-6-yl)-N-(4-(trifluoromethoxy)phenyl)azetidine-1-carboxamide]"
12,1 to 100 nM,"CC(C)(C)OC(=O)N1CCCC(NC(=O)N2CC(c3nc4c(cnn4C4CCCCC4)c(=O)[nH]3)C2)C1 (centres unmarked) [Example 26, tert-butyl 3-(3-(1-cyclohexyl-4-oxo-4,5-dihydro-1H-pyrazolo[3,4-d]pyrimidin-6-yl)azetidine-1-carboxamido)piperidine-1-carboxylate]"
13,1 to 100 nM,"Cc1nn(C2CCCCC2)c2nc(C3CN(C(=O)NCc4ccc(F)cc4)C3)[nH]c(=O)c12 [Example 27, 3-(1-cyclohexyl-3-methyl-4-oxo-4,5-dihydro-1H-pyrazolo[3,4-d]pyrimidin-6-yl)-N-(4-fluorobenzyl)azetidine-1-carboxamide]"
14,1 to 100 nM,"COc1ccc(CNC(=O)N2CC(c3nc4c(c(C)nn4C4CCCCC4)c(=O)[nH]3)C2)cc1 [Example 28, 3-(1-cyclohexyl-3-methyl-4-oxo-4,5-dihydro-1H-pyrazolo[3,4-d]pyrimidin-6-yl)-N-(4-methoxybenzyl)azetidine-1-carboxamide]"
15,1 to 100 nM,"Cc1nn(-c2ccc(F)cc2)c2nc(C3CN(C(=O)Nc4ccccc4OC(F)F)C3)[nH]c(=O)c12 [Example 29, N-(2-(difluoromethoxy)phenyl)-3-(1-(4-fluorophenyl)-3-methyl-4-oxo-4,5-dihydro-1H-pyrazolo[3,4-d]pyrimidin-6-yl)azetidine-1-carboxamide]"

# The remaining lines, values behind:
row,SMILES,IC50
1,"Cc1nn(C(C)(C)C)c2nc(C3CN(C(=O)Nc4ccc5c(c4)OCO5)C3)[nH]c(=O)c12 [Example 1, N-(Benzo[d][1,3]dioxol-5-yl)-3-(1-tert-butyl-3-methyl-4-oxo-4,5-dihydro-1H-pyrazolo[3,4-d]pyrimidin-6-yl)azetidine-1-carboxamide]",1 to 100 nM
2,"CC(C)N1CCN(c2ccc(NC(=O)N3CC(c4nc5c(cnn5C5CCCCC5)c(=O)[nH]4)C3)cc2)CC1 [Example 2, 3-(1-Cyclohexyl-4-oxo-4,5-dihydro-1H-pyrazolo[3,4-d]pyrimidin-6-yl)-N-(4-(4-isopropylpiperazin-1-yl)phenyl)azetidine-1-carboxamide]",1 to 100 nM
3,"CN1CCN(c2ccc(NC(=O)N3CC(c4nc5c(cnn5C5CCCCC5)c(=O)[nH]4)C3)cc2)CC1 [Example 3, 3-(1-cyclohexyl-4-oxo-4,5-dihydro-1H-pyrazolo[3,4-d]pyrimidin-6-yl)-N-(4-(4-methylpiperazin-1-yl)phenyl)azetidine-1-carboxamide]",1 to 100 nM
4,"Cc1ccc(NC(=O)N2CC(c3nc4c(cnn4C4CCCCC4)c(=O)[nH]3)C2)cc1C [Example 4, 3-(1-cyclohexyl-4-oxo-4,5-dihydro-1H-pyrazolo[3,4-d]pyrimidin-6-yl)-N-(3,4-dimethylphenyl)azetidine-1-carboxamide]",1 to 100 nM
5,"O=C(NCC1CCCCC1)N1CC(c2nc3c(cnn3C3CCCCC3)c(=O)[nH]2)C1 [Example 5, 3-(1-cyclohexyl-4-oxo-4,5-dihydro-1H-pyrazolo[3,4-d]pyrimidin-6-yl)-N-(cyclohexylmethyl)azetidine-1-carboxamide]",1 to 100 nM
6,"Cc1nn(C(C)(C)C)c2nc(C3CN(C(=O)Nc4ccccc4)C3)[nH]c(=O)c12 [Example 6, 3-(1-tert-butyl-3-methyl-4-oxo-4,5-dihydro-1H-pyrazolo[3,4-d]pyrimidin-6-yl)-N-phenylazetidine-1-carboxamide]",1 to 100 nM
7,"CN(C)c1cccc(NC(=O)N2CC(c3nc4c(cnn4C4CCCCC4)c(=O)[nH]3)C2)c1 [Example 7, 3-(1-cyclohexyl-4-oxo-4,5-dihydro-1H-pyrazolo[3,4-d]pyrimidin-6-yl)-N-(3-(dimethylamino)phenyl)azetidine-1-carboxamide]",1 to 100 nM
8,"O=C(Nc1cccc(Cl)c1)N1CC(c2nc3c(cnn3C3CCCCC3)c(=O)[nH]2)C1 [Example 8, N-(3-chlorophenyl)-3-(1-cyclohexyl-4-oxo-4,5-dihydro-1H-pyrazolo[3,4-d]pyrimidin-6-yl)azetidine-1-carboxamide]",1 to 100 nM
9,"CN(C)c1ccc(NC(=O)N2CC(c3nc4c(cnn4C4CCCCC4)c(=O)[nH]3)C2)cc1 [Example 9, 3-(1-cyclohexyl-4-oxo-4,5-dihydro-1H-pyrazolo[3,4-d]pyrimidin-6-yl)-N-(4-(dimethylamino)phenyl)azetidine-1-carboxamide]",1 to 100 nM
10,"O=C(Nc1ccc(N2CCOCC2)cc1)N1CC(c2nc3c(cnn3C3CCCCC3)c(=O)[nH]2)C1 [Example 10, 3-(1-cyclohexyl-4-oxo-4,5-dihydro-1H-pyrazolo[3,4-d]pyrimidin-6-yl)-N-(4-morpholinophenyl)azetidine-1-carboxamide]",1 to 100 nM
11,"O=C(Nc1ccccc1)N1CC(c2nc3c(cnn3C3CCCCC3)c(=O)[nH]2)C1 [Example 11, 3-(1-cyclohexyl-4-oxo-4,5-dihydro-1H-pyrazolo[3,4-d]pyrimidin-6-yl)-N-phenylazetidine-1-carboxamide]",1 to 100 nM
12,"Cc1nn(C(C)(C)C)c2nc(C3CN(C(=O)Nc4ccc(F)cc4)C3)[nH]c(=O)c12 [Example 12, 3-(1-tert-butyl-3-methyl-4-oxo-4,5-dihydro-1H-pyrazolo[3,4-d]pyrimidin-6-yl)-N-(4-fluorophenyl)azetidine-1-carboxamide]",1 to 100 nM
13,"COc1ccc(NC(=O)N2CC(c3nc4c(cnn4C4CCCCC4)c(=O)[nH]3)C2)cc1 [Example 13, 3-(1-cyclohexyl-4-oxo-4,5-dihydro-1H-pyrazolo[3,4-d]pyrimidin-6-yl)-N-(4-methoxyphenyl)azetidine-1-carboxamide]",1 to 100 nM
14,"Cc1nn(C2CCCCC2)c2nc(C3CN(C(=O)Nc4ccccc4)C3)[nH]c(=O)c12 [Example 14, 3-(1-cyclohexyl-3-methyl-4-oxo-4,5-dihydro-1H-pyrazolo[3,4-d]pyrimidin-6-yl)-N-phenylazetidine-1-carboxamide]",1 to 100 nM
